Values joined by “and” are separate entries in the source; they are usually repeats but may differ in a detail not shown here. Equal entries are not always repeated. Where a SMILES comes first, the peptide text is derived from it.
Biological target: Mu-type opioid receptor (Rattus norvegicus, UniProt P33535)
Sequence (P33535 whole entry): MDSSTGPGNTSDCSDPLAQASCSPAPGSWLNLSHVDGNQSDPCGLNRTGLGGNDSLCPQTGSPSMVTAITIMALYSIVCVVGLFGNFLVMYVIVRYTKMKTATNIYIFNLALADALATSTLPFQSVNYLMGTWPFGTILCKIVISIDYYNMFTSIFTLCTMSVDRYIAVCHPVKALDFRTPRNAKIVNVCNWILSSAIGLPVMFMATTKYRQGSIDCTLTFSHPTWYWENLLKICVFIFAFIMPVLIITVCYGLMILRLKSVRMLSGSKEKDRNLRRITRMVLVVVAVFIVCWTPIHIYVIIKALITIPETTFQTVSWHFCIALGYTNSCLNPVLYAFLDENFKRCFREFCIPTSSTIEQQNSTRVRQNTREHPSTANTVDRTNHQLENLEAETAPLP

| SMILES | Ki |
| --- | --- |
| NC(=O)[C@@H]1CCCN1C(=O)[C@H](Cc1ccccc1)NC(=O)[C@@H]1CCCN1C(=O)[C@@H](N)Cc1ccc(O)cc1 [CAS_79805-24-6] (H-YPFP-NH2) | 1160 nM |
| CC(C)[C@H](NC(=O)[C@H](Cc1ccccc1)NC(=O)[C@@H]1CCCN1C(=O)[C@@H](N)Cc1ccc(O)cc1)C(N)=O (H-YPFV-NH2) | 37 nM and 16.1 nM |
| NC(=O)[C@@H]1CCCN1C(=O)[C@@H](Cc1ccccc1)NC(=O)[C@@H]1CCCN1C(=O)[C@@H](N)Cc1ccc(O)cc1 [Morphiceptin] (HELM PEPTIDE1{Y.P.[dF].P.[am]}$$$$V2.0) | 63 nM and 34.9 nM |

Source: BindingDB's records for PubMed 3033464 (Burroughs Wellcome, 1987)
